Reference: PubChem BioAssay AID1259407 (Chemical Carcinogenesis Research Information System (CCRIS), 2018)
Activity calls are given as the source filed them. The rule behind the calls is not given here.

System: CCRIS mutagenicity, Ames/micronucleus/aberration tests
Test: CCRIS mutagenicity studies
[1] = Test System: AMES SALMONELLA TYPHIMURIUM, Strain/Indicator: TA98, Metabolic Activation: NONE, Method: STANDARD PLATE
[2] = Test System: AMES SALMONELLA TYPHIMURIUM, Strain/Indicator: TA100, Metabolic Activation: NONE, Method: STANDARD PLATE
[3] = Test System: AMES SALMONELLA TYPHIMURIUM, Strain/Indicator: TA1535, Metabolic Activation: NONE, Method: STANDARD PLATE
[4] = Test System: AMES SALMONELLA TYPHIMURIUM, Strain/Indicator: TA1537, Metabolic Activation: NONE, Method: STANDARD PLATE
[5] = Test System: AMES SALMONELLA TYPHIMURIUM, Strain/Indicator: TA98, Metabolic Activation: NONE, Method: PREINCUBATION
[6] = Test System: AMES SALMONELLA TYPHIMURIUM, Strain/Indicator: TA100, Metabolic Activation: NONE, Method: PREINCUBATION
[7] = Test System: AMES SALMONELLA TYPHIMURIUM, Strain/Indicator: TA1535, Metabolic Activation: NONE, Method: PREINCUBATION
[8] = Test System: AMES SALMONELLA TYPHIMURIUM, Strain/Indicator: TA98, Metabolic Activation: RAT, LIVER, S-9, AROCLOR 1254, Method: STANDARD PLATE
[9] = Test System: AMES SALMONELLA TYPHIMURIUM, Strain/Indicator: TA100, Metabolic Activation: RAT, LIVER, S-9, AROCLOR 1254, Method: STANDARD PLATE
[10] = Test System: AMES SALMONELLA TYPHIMURIUM, Strain/Indicator: TA1535, Metabolic Activation: RAT, LIVER, S-9, AROCLOR 1254, Method: STANDARD PLATE
[11] = Test System: AMES SALMONELLA TYPHIMURIUM, Strain/Indicator: TA1537, Metabolic Activation: RAT, LIVER, S-9, AROCLOR 1254, Method: STANDARD PLATE
[12] = Test System: AMES SALMONELLA TYPHIMURIUM, Strain/Indicator: TA1538, Metabolic Activation: NONE, Method: STANDARD PLATE
[13] = Test System: AMES SALMONELLA TYPHIMURIUM, Strain/Indicator: TA1538, Metabolic Activation: RAT, LIVER, S-9, AROCLOR 1254, Method: STANDARD PLATE

## CC(=O)Nc1snc2ccc(Cl)cc12
[1]
  mutagenic call: inactive; negative
Test System: AMES SALMONELLA TYPHIMURIUM, Strain/Indicator: TA98, Metabolic Activation: S-9, Method: STANDARD PLATE
  mutagenic call: inactive; negative
[2]
  mutagenic call: inactive; negative
Test System: AMES SALMONELLA TYPHIMURIUM, Strain/Indicator: TA100, Metabolic Activation: S-9, Method: STANDARD PLATE
  mutagenic call: active; positive
[3]
  mutagenic call: inactive; negative
Test System: AMES SALMONELLA TYPHIMURIUM, Strain/Indicator: TA1535, Metabolic Activation: S-9, Method: STANDARD PLATE
  mutagenic call: inactive; negative
[4]
  mutagenic call: inactive; negative
Test System: AMES SALMONELLA TYPHIMURIUM, Strain/Indicator: TA1537, Metabolic Activation: S-9, Method: STANDARD PLATE
  mutagenic call: active; positive

## O=[N+]([O-])c1cccc2nc3ccccc3nc12
Test System: AMES SALMONELLA TYPHIMURIUM, Strain/Indicator: TA98(NR), Metabolic Activation: NONE, Method: PREINCUBATION
  mutagenic call: active; positive
[5]
  mutagenic call: inactive; negative

## COc1ccc(OC)cc1
Test System: AMES SALMONELLA TYPHIMURIUM, Strain/Indicator: TA98, Metabolic Activation: HAMSTER, LIVER, S-9, AROCLOR 1254, Method: PREINCUBATION
  mutagenic call: inactive; negative
[5]
  mutagenic call: inactive; negative
Test System: AMES SALMONELLA TYPHIMURIUM, Strain/Indicator: TA98, Metabolic Activation: RAT, LIVER, S-9, AROCLOR 1254, Method: PREINCUBATION
  mutagenic call: inactive; negative
Test System: AMES SALMONELLA TYPHIMURIUM, Strain/Indicator: TA100, Metabolic Activation: HAMSTER, LIVER, S-9, AROCLOR 1254, Method: PREINCUBATION
  mutagenic call: inactive; negative
[6]
  mutagenic call: inactive; negative
Test System: AMES SALMONELLA TYPHIMURIUM, Strain/Indicator: TA100, Metabolic Activation: RAT, LIVER, S-9, AROCLOR 1254, Method: PREINCUBATION
  mutagenic call: inactive; negative
Test System: AMES SALMONELLA TYPHIMURIUM, Strain/Indicator: TA1535, Metabolic Activation: HAMSTER, LIVER, S-9, AROCLOR 1254, Method: PREINCUBATION
  mutagenic call: inactive; negative
[7]
  mutagenic call: inactive; negative
Test System: AMES SALMONELLA TYPHIMURIUM, Strain/Indicator: TA1535, Metabolic Activation: RAT, LIVER, S-9, AROCLOR 1254, Method: PREINCUBATION
  mutagenic call: inactive; negative
Test System: AMES SALMONELLA TYPHIMURIUM, Strain/Indicator: TA1537, Metabolic Activation: HAMSTER, LIVER, S-9, AROCLOR 1254, Method: PREINCUBATION
  mutagenic call: inactive; negative
Test System: AMES SALMONELLA TYPHIMURIUM, Strain/Indicator: TA1537, Metabolic Activation: NONE, Method: PREINCUBATION
  mutagenic call: inactive; negative
Test System: AMES SALMONELLA TYPHIMURIUM, Strain/Indicator: TA1537, Metabolic Activation: RAT, LIVER, S-9, AROCLOR 1254, Method: PREINCUBATION
  mutagenic call: inactive; negative

## O=c1c(O)c(C2=CC(O)(CCO)C(O)(CCO)C=C2)oc2c1C(O)=CC(O)(CCO)C2 (stereo not drawn)
[1]
  mutagenic call: inactive; negative
[8]
  mutagenic call: inactive; negative
[2]
  mutagenic call: inactive; negative
[9]
  mutagenic call: inactive; negative
[3]
  mutagenic call: inactive; negative
[10]
  mutagenic call: inactive; negative
[4]
  mutagenic call: inactive; negative
[11]
  mutagenic call: inactive; negative
[12]
  mutagenic call: inactive; negative
[13]
  mutagenic call: inactive; negative

## CC(C)NCC(O)c1cc(O)cc(O)c1 (stereo not drawn)
End Point: MORPHOLOGICAL TRANSFORMATION, Test System: SYRIAN HAMSTER EMBRYO CELLS (SHE), Metabolic Activation: NONE
  mutagenic call: inactive; negative

## NC(Cc1ccccc1)C(=O)O (stereo not drawn)
Test System: AMES SALMONELLA TYPHIMURIUM, Strain/Indicator: TA98, Metabolic Activation: RAT LIVER S-9, CHLOROPHENE, Method: STANDARD PLATE (COMPOUND HEATED AT 250 DEGREES CELSIUS FOR 20 MIN)
  mutagenic call: inactive; negative

## Clc1cccc2c1oc1ccccc12
[1]
  mutagenic call: inactive; negative
Test System: AMES SALMONELLA TYPHIMURIUM, Strain/Indicator: TA98, Metabolic Activation: RAT, LIVER, S-9, PHENOBARBITAL AND NAPHTHOFLAVONE, Method: STANDARD PLATE
  mutagenic call: inactive; negative
[2]
  mutagenic call: inactive; negative
Test System: AMES SALMONELLA TYPHIMURIUM, Strain/Indicator: TA100, Metabolic Activation: RAT, LIVER, S-9, PHENOBARBITAL AND NAPHTHOFLAVONE, Method: STANDARD PLATE
  mutagenic call: inactive; negative

## O[C@H]1[C@@H]2O[C@@H]2C=C[C@@H]1O
[5]
  mutagenic call: inactive; negative
[6]
  mutagenic call: inactive; negative
[7]
  mutagenic call: active; positive

## C#C[C@]1(O)CC[C@H]2[C@@H]3CCC4=CC(=O)CC[C@@H]4[C@H]3CC[C@@]21CC
End Point: IN VITRO CHROMOSOMAL ABERRATIONS, Test System: HUMAN LYMPHOCYTES, Metabolic Activation: NONE
  mutagenic call: active; positive at two higher doses (structural changes)
End Point: IN VITRO CHROMOSOMAL ABERRATIONS, Test System: HUMAN LYMPHOCYTES, Metabolic Activation: RAT, LIVER, S-9, PHENOBARBITONE
  mutagenic call: active; positive at all dose levels (structural changes)
Test System: AMES SALMONELLA TYPHIMURIUM, Strain/Indicator: TA98, Metabolic Activation: MOUSE, LIVER, S-9, Method: STANDARD PLATE
  mutagenic call: inactive; negative
[1]
  mutagenic call: inactive; negative
[8]
  mutagenic call: inactive; negative
Test System: AMES SALMONELLA TYPHIMURIUM, Strain/Indicator: TA100, Metabolic Activation: MOUSE, LIVER, S-9, Method: STANDARD PLATE
  mutagenic call: inactive; negative
[2]
  mutagenic call: inactive; negative
[9]
  mutagenic call: inactive; negative
Test System: AMES SALMONELLA TYPHIMURIUM, Strain/Indicator: TA1535, Metabolic Activation: MOUSE, LIVER, S-9, Method: STANDARD PLATE
  mutagenic call: inactive; negative
[3]
  mutagenic call: inactive; negative
[10]
  mutagenic call: inactive; negative
Test System: AMES SALMONELLA TYPHIMURIUM, Strain/Indicator: TA1537, Metabolic Activation: MOUSE, LIVER, S-9, Method: STANDARD PLATE
  mutagenic call: inactive; negative
[4]
  mutagenic call: inactive; negative
[11]
  mutagenic call: inactive; negative
Test System: AMES SALMONELLA TYPHIMURIUM, Strain/Indicator: TA1538, Metabolic Activation: MOUSE, LIVER, S-9, Method: STANDARD PLATE
  mutagenic call: inactive; negative
[12]
  mutagenic call: inactive; negative
[13]
  mutagenic call: inactive; negative
